From patent publication US8247394B2 (Cempra Pharmaceuticals Inc., priority 2010, dated 2012)
In brackets after ≈: the same amount, converted by molar mass. Read-outs that look alike come from different tables or passages of the source.

Assays:
[1] = test system: N. gonorrhoeae; assay: Reference agar dilution susceptibility testing (CLSI M07-A8) of N. gonorrhoeae clinical isolates; type: cell-based, Neisseria gonorrhoeae; conditions: for % by category, R (resistant); resistance rate / % by category, S (susceptible): CLSI criteria, 35 strains; for MIC50: Neisseria gonorrhoeae, 35 N. gonorrhoeae strains, read-out: MIC50
Experimental: Thirty-five clinical isolates of N. gonorrhoeae collected in the United States (USA), Asia and European medical centers since 2005 were tested using reference agar dilution methods per Clinical and Laboratory Standards Institute (CLSI) M07-A8 (Clinical and Laboratory Standards Institute. 2009. M07-A8, Methods for dilution antimicrobial susceptibility tests for bacteria that grow aerobically; approved standard—eighth edition. Wayne, Pa.: CLSI) and M100-S20 documents (Clinical and Laboratory Standards Institute. 2010. M100-S20, Performance standards for antimicrobial susceptibility testing, 20th informational supplement. Wayne, Pa.: CLSI). […] Quality control (QC) ranges and interpretive criteria for comparator compounds were as published by CLSI (Clinical and Laboratory Standards Institute. 2010. M100-S20, Performance standards for antimicrobial susceptibility testing, 20th informational supplement. Wayne, Pa.: CLSI).

[2] = test system: C. trachomatis; assay: In vitro susceptibility testing of C. trachomatis in cell culture using HEp-2 cells (MIC/MBC); type: cell-based, Chlamydia trachomatis; conditions: for MIC / MBC / MIC90: Chlamydia trachomatis
Experimental: Chlamydia isolates: 10 isolates of C. trachomatis in order to determine the MIC90 and MBC90 for each antibiotic.
C. trachomatis: 10 isolates of C. trachomatis, including standard isolates from the ATCC (E-BOUR, F-IC-CAL3, C-HAR32, J-UW-36, L2434, D-UW-57kx, B-HAR-36) and recent clinical isolates N18 (cervical), N19 (cervical), 7015 (infant eye).
In vitro susceptibility testing: Susceptibility testing of C. trachomatis was performed in cell culture using HEp-2 cells grown in 96-well microtiter plates. Each well was inoculated with 0.1 ml of the test strain diluted to yield 10^3 to 10^4 IFU/per ml, centrifuged at 1,700×g for 1 hr and incubated at 35° C. for 1 hr. Wells were then aspirated and overlaid with 0.2 ml of medium containing 1 μg of cycloheximide per ml and serial two fold dilutions of the test drug. Duplicate plates were inoculated. After incubation at 35° C. for 48-72 hrs, cultures were fixed and stained for inclusions with fluorescein-conjugated antibody to the lipopolysaccharide genus antigen ([…]™, Kallestad Diagnostics, Chaska, Minn.). The minimal inhibitory concentration (MIC) was the lowest antibiotic concentration at which no inclusions are seen. The minimal bactericidal concentration (MBC) was determined by aspirating the antibiotic containing medium, washing wells twice with phosphate buffered saline and adding antibiotic-free medium. Cultures were frozen at −70° C., thawed, passed onto new cells, incubated for 72 hrs then fixed and stained as above. The MBC was the lowest antibiotic concentration that results in no inclusions after passage. All tests were run in triplicate.
Ten isolates of C. trachomatis including standard isolates from the ATCC (E-BOUR, F-IC-CAL3, C-HAR32, J-UW-36, L2434, D-UW-57kx, B-HAR-36) and recent clinical isolates N18 (cervical), N19 (cervical), 7015 (infant eye) were selected for study. Susceptibility testing was performed in cell culture using HEp-2 cells (Roblin et. al. Antimicrob. Agents Chemother. 42:194-196 (1998)) at State University of New York, Downstate Medical Center (Brooklyn, N.Y., USA).

[3] = number of isolates among 35 strains

CN(C)[C@@H]1C(O)=C(C(N)=O)C(=O)[C@@]2(O)C(O)=C3C(=O)c4c(O)cccc4[C@@](C)(O)[C@H]3C[C@@H]12 [Tetracycline, tetracycline]
% by category, R (resistant); resistance rate [1]: 34.3%
% by category, S (susceptible) [1]: 22.9%
MIC50 [1]: 1 µg/mL (≈ 2.25 µM)
Occurrences at MIC 0.12 μg/ml [1, 3]: 6
Occurrences at MIC 0.25 μg/ml [1, 3]: 2
Occurrences at MIC 0.5 μg/ml [1, 3]: 8
Occurrences at MIC 1 μg/ml [1, 3]: 7
Occurrences at MIC 2 μg/ml [1, 3]: 7
Occurrences at MIC 4 μg/ml [1, 3]: 1
Occurrences at MIC >4 μg/ml [1, 3]: 4

CC(=O)O[C@H]1C[C@@]2(C)[C@@H](C[C@@H](O)[C@H]3[C@@]4(C)CC[C@@H](O)[C@@H](C)[C@@H]4CC[C@@]32C)/C1=C(\CCC=C(C)C)C(=O)[O-].[Na+] [CEM 102, Sodium fusidate]
MIC ([2]; strain 7015): 0.5 µg/mL
MBC ([2]; strain 7015, read-out: MBC): 0.5 µg/mL
MIC ([2]; strain Ct D): 0.5 µg/mL
MBC ([2]; strain Ct D, read-out: MBC): 0.5 µg/mL
MIC ([2]; strain Ct E): 0.5 µg/mL
MBC ([2]; strain Ct E, read-out: MBC): 0.5 µg/mL
MIC ([2]; strain Ct F): 0.5 µg/mL
MBC ([2]; strain Ct F, read-out: MBC): 0.5 µg/mL
MIC ([2]; strain Ct H): 0.5 µg/mL
MBC ([2]; strain Ct H, read-out: MBC): 0.5 µg/mL
MIC ([2]; strain Ct I): 0.5 µg/mL
MBC ([2]; strain Ct I, read-out: MBC): 0.5 µg/mL
MIC ([2]; strain Ct J): 0.5 µg/mL
MBC ([2]; strain Ct J, read-out: MBC): 0.5 µg/mL
MIC ([2]; strain L2): 0.25 µg/mL
MBC ([2]; strain L2, read-out: MBC): 0.25 µg/mL
MIC ([2]; strain N18): 0.25 µg/mL
MBC ([2]; strain N18, read-out: MBC): 0.25 µg/mL
MIC ([2]; strain N19): 0.125 µg/mL
MBC ([2]; strain N19, read-out: MBC): 0.125 µg/mL
MIC90 ([2]; 10 strains of C. trachomatis): 0.5 µg/mL
MBC ([2]; 10 strains of C. trachomatis, read-out: MBC90): 0.5 µg/mL

CC[C@H]1OC(=O)[C@H](C)[C@@H](O[C@H]2C[C@@](C)(OC)[C@@H](O)[C@H](C)O2)[C@H](C)[C@@H](O[C@@H]2O[C@H](C)C[C@H](N(C)C)[C@H]2O)[C@](C)(O)C[C@@H](C)CN(C)[C@H](C)[C@@H](O)[C@]1(C)O [Azithromycin, azithromycin]
% by category, R (resistant); resistance rate [1]: 0.0%
MIC50 [1]: 0.25 µg/mL (≈ 0.334 µM)
Occurrences at MIC 0.06 μg/ml [1, 3]: 1
Occurrences at MIC 0.12 μg/ml [1, 3]: 15
Occurrences at MIC 0.25 μg/ml [1, 3]: 12
Occurrences at MIC 0.5 μg/ml [1, 3]: 5
Occurrences at MIC 1 μg/ml [1, 3]: 1
Occurrences at MIC 2 μg/ml [1, 3]: 1
MBC Range ([2]; 10 strains): 0.015 to 0.12 µg/mL
MIC 90% ([2]; 10 strains): 0.12 µg/mL (≈ 0.16 µM)
MIC Range ([2]; 10 strains): 0.015 to 0.12 µg/mL
MBC ([2]; 10 strains, read-out: MBC 90%): 0.12 µg/mL (≈ 0.16 µM)
MIC90 ([2]; 10 strains of C. trachomatis): 0.12 µg/mL (≈ 0.16 µM)

CO/N=C(\C(=O)N[C@@H]1C(=O)N2C(C(=O)O)=C(CSc3nc(=O)c(=O)[nH]n3C)CS[C@H]12)c1csc(N)n1 [Ceftriaxone, ceftriaxone]
% by category, R (resistant); resistance rate [1]: 0.0%
% by category, S (susceptible) [1]: 100.0/— %
Occurrences at MIC 0.015 μg/ml [1, 3]: 6
Occurrences at MIC 0.03 μg/ml [1, 3]: 6
Occurrences at MIC 0.06 μg/ml [1, 3]: 3
Occurrences at MIC 0.12 μg/ml [1, 3]: 2
Occurrences at MIC ≦0.008 μg/ml [1, 3]: 18
